Columns and labels:
murine splenocytes = test: Murine splenocyte proliferation with PHA or LPS; assay type: cell-based, BALB/c mice; conditions: for tritiated thymidine incorporation, LPS 10 μg/ml / tritiated thymidine incorporation, PHA 0.5 μg/ml: mean CPM±SEM
Procedure: In vitro: Both human peripheral blood lymphocytes (HPBL) and mouse spleen lymphocytes (MSL) were employed. Proliferation was assayed by tritiated thymidine incorporation, as described in Hadden et al. (1975) and Hadden et al. (1986). For HPBL transformation, PHA and PWM were used at 0.5 μg/ml. For MSL transformation, Con A was used at 0.5 μg/ml, phytohemagglutinin (PHA, Murex Diagnostics, Atlanta, Ga.) at 0.5 μg/ml and lipopolysaccharide endotoxin (LPS, Sigma, St. Louis, Mo.) at 10 μg/ml. When protected-IMP derivatives were added, they were added at the onset of culture at varying concentrations ranging from 0.1 μg/ml to 100 μg/ml.
Murine splenocytes were obtained from BALB/c mice, 4-12 months old, by standard procedures (Hadden et al., 1975). They were cultured in microwell plates at 1.5×10^6 cells/ml of minimal essential media (MEM, Gibco Labs, Grand Island, N.Y.) with 5% fetal calf serum (FCS, Hyclone Labs, Logan, Utah) and tested for their proliferative response to mitogens as measured by incorporation of (^3 H) tritiated thymidine (New England Nuclear, Wilmington Del., […]; 2.5 μCi/ml) during a terminal pulse followed by liquid scintillation spectrometry. Human cells were seeded at […] and cultured for 48 hours with an 18 hour pulse with ^3 H-thymidine.
In a further experiment, murine splenocytes were incubated with PHA or LPS and MIMP (1-100 μg/ml). […] Splenocyte responses to PHA preferentially reflect T lymphocyte responses, confirming the responses seen with ConA. The LPS responses also parallel the previous experiment.
The data was obtained from four different animals and represent quadruplicate samples for each concentration. They are expressed as mean CPM±SEM, with * showing a significance of p<0.05 and ** showing p<0.01.

anti-HBs = test: Anti-HBs production in normal DBA/2 mice (EIA); assay type: in vivo; conditions: for anti-HBs, Day 14 / anti-HBs, Day 21: 50 mg/kg
Source text: Different strains of mice, coded by Pre-S2 zone S-gene HBV for their immune responses for proteins place them in the following haplotype order (Benaceraf and McDevitt, 1972): H-2^b >H-2^d >H-2^s >H-2^k>H-2^f. […] Therefore, male DBA/2 mice weighing 16-18 grams were obtained from the Animal Laboratory, Academy of Medical Science, Russia, and were used in the examples set forth herein. This line of mice was chosen as they are poor responders to hepatitis B vaccine.
Serum specimens from immunized mice were tested for the presence of anti-HBs in an enzyme immunoassay (EIA) using the diagnostic kits of Roche Diagnostica as per the manufacturer's instructions. The anti-HBs EIA kit (Roche), has a sensitivity of <10 IU/1.
Antibody concentration was determined with the help of calibration curves designed on the basis of the results of anti-HBs detection in standard serum panel (Roche Diagnostica) with the concentrations, as follows: 10 IU/l; 50 IU/l; 100 IU/l and 150 IU/l. The results of the two experiments were used for the calculation of mean values.
HBsAg was administered at a dose of […] in 0.2 ml PBS (pH 7.4) twice with an interval of two weeks between injections.
A protected-IMP, MIMP, was introduced both orally or intraperitoneally at a dose of 50 mg/kg.
The results of anti-HBs detection in the control group of mice treated with HBsAg alone and in the groups treated with the combination of HBsAg and MIMP, as prepared in the examples, are presented in Table 9. The various vaccination schedules are provided in the following list.

prothymocytes = conditions: Touraine et al., 1991; cited from earlier work
[1] = tested on: human peripheral blood lymphocytes (HPBL); test: Reversal of suppression of HPBL PHA response by HIV gp41 peptide, interferon α and PGE2; assay type: cell-based; conditions: for effect on gp41 peptide-suppressed PHA proliferation: MIMP 0.1-100 μg/ml
Source text: A 17 amino acid sequence from the gp41 portion of the gp16O peptide of the human immunodeficiency virus (HIV) was synthesized and kindly provided to us by M. Strand (Johns Hopkins University, Baltimore, Md.) (Reugg and Strand, 1990).
Prostaglandin E2 was obtained from Sigma Chemicals (St. Louis, Mo.) and recombinant interferon-α (IFNα, Intron A) was obtained from Schering Corp. (Kenilworth, N.J.).
A synthetic 17 amino acid peptide representing the immunosuppressive site of the intramembranous gp41 portion of the human immunodeficiency virus (HIV) was tested on lymphocytes from controls. […] The effect of MIMP from 0.1-100 μg/ml was examined in combination with varying degrees of inhibition by the peptide.
Virus infections are associated with depressed lymphoproliferative responses.

γ-IFN = test: PHA-induced γ-IFN production; assay type: cell-based; conditions: preliminary data
IL-10 = test: PHA-induced IL-10 production; assay type: cell-based; conditions: preliminary data
[2] = tested on: human peripheral blood lymphocytes (HPBL); test: PHA responses of HPBL from aged and HIV-infected individuals; assay type: cell-based; conditions: 100 μg/ml
Procedure: The human donors included 22 healthy controls (ages ranging from 20-50), 24 aged individuals (mean age 84 years, ±1), 8 HIV-infected pre-AIDS patients (CDC Class II-mean CD4 count 544), and 8 AIDS patients (mean CD4 count 40).
FIG. 7 depicts the PHA responses of these aged and HIV-infected individuals and the effect of stimulation with 100 μg/ml of MIMP compared to normal controls (C).

[3] = scheme 3: HBsAg + MIMP i.p. simultaneously then MIMP per os, p < 0.01

COP(=O)(O)OC[C@H]1O[C@@H](n2cnc3c(=O)[nH]cnc32)[C@H](O)[C@@H]1O [Me-IMP, Methyl-5'-inosine-monophosphate]
tritiated thymidine incorporation, LPS 10 μg/ml (murine splenocytes; MIMP 1 μg/ml): 47261 ± 997 CPM
tritiated thymidine incorporation, PHA 0.5 μg/ml (murine splenocytes; MIMP 1 μg/ml): 106647 ± 4917 CPM
tritiated thymidine incorporation, LPS 10 μg/ml (murine splenocytes; MIMP 10 μg/ml, p<0.05): 57481 ± 2343 CPM
tritiated thymidine incorporation, PHA 0.5 μg/ml (murine splenocytes; MIMP 10 μg/ml, p<0.05): 117247 ± 6500 CPM
tritiated thymidine incorporation, PHA 0.5 μg/ml (murine splenocytes; MIMP 100 μg/ml, p<0.01): 124801 ± 6630 CPM
tritiated thymidine incorporation, LPS 10 μg/ml (murine splenocytes; MIMP 100 μg/ml, p<0.05): 55153 ± 6176 CPM
splenocyte responses in the absence of mitogens (murine splenocytes; MIMP 1-100 μg/ml): did not affect
proliferative responses in the presence of mitogens (murine splenocytes; MIMP 1-100 μg/ml, PHA or LPS): progressively and significantly augumented
anti-HBs, Day 14 (anti-HBs; scheme 2: HBsAg + MIMP per os 30 minutes prior to vaccine): < 10 IU/1
anti-HBs, Day 21 (anti-HBs; scheme 2: HBsAg + MIMP per os 30 minutes prior to vaccine, 0.01 < p < 0.05): 370 IU/1
anti-HBs, Day 14 (anti-HBs; [3]): 100 IU/1
anti-HBs, Day 21 (anti-HBs; [3]): 610 IU/1
anti-HBs, Day 21 (anti-HBs; scheme 4: HBsAg + MIMP i.p. simultaneously, 0.01 < p < 0.05): 420 IU/1
anti-HBs, Day 14 (anti-HBs; scheme 4: HBsAg + MIMP i.p. simultaneously, p < 0.01): 100 IU/1
level of antibodies to HBsAg (anti-HBs; single intraperitoneal or single oral dose of 50 mg/kg): significant increase
differentiation markers of prothymocytes (prothymocytes): induce differentiation markers of prothymocytes
effect on gp41 peptide-suppressed PHA proliferation ([1]; inhibition more severe (>50%)): not significant
effect on gp41 peptide-suppressed PHA proliferation ([1]; peptide-induced suppression less than 50%): restored the proliferative responses to near-normal ranges
effect on rIFN-α inhibition of PHA response ([1]; MIMP 1, 10, 100 μg/ml, 10 and 100 units/ml IFN α): reverse the inhibition when it is moderate
effect on PGE2 inhibition of PHA response ([1]; MIMP 1-100 μg/ml, PGE2 10^-5 M): reverse the inhibition
effect on PHA-induced γ-IFN (γ-IFN): only a small effect
effect on IL-10 production (IL-10): potently inhibits
response of lymphocytes to MIMP in presence of PHA ([2]; 8 AIDS patients): no response
response of lymphocytes to MIMP in presence of PHA ([2]; 8 HIV-infected (ARC) individuals): significant response
response of lymphocytes to MIMP in presence of PHA ([2]; 9 aged patients (Ag-)): markedly depressed responses to PHA and also to MIMP
response of lymphocytes to MIMP in presence of PHA ([2]; 15 aged patients (Ag+)): normal PHA responses and responses to MIMP
response of lymphocytes to MIMP in presence of PHA ([2]; 22 controls): normal PHA and MIMP responses
